Two compounds from ChEMBL document CHEMBL3046672, “Synthesis and bioevaluation of Schiff and Mannich bases of isatin derivatives with 4-amino-5-benzyl-2,4-dihydro-3H-1,2,4-triazole-3-thione” (2012) can be followed below.

What all share (type): functional
What all share (conditions): read-out: DIZ

Test [1] concerns Candida albicans. Description: Antifungal activity against Candida albicans at 100 ug/ml.
Test [2] has as its system Staphylococcus aureus. The test can be described thus: Antibacterial activity against Staphylococcus aureus at 200 ug/ml.
Test [3] has as its system Escherichia coli. The test can be described thus: Antibacterial activity against Escherichia coli at 50 ug/ml.
Test [4] deals with Pseudomonas aeruginosa. The test can be described thus: Antibacterial activity against Pseudomonas aeruginosa at 100 ug/ml.
In test [5] the test system is Aspergillus niger. The test can be described thus: Antifungal activity against Aspergillus niger at 100 ug/ml.
Test [6] has as its system Escherichia coli. Description: Antibacterial activity against Escherichia coli at 200 ug/ml.
Test [7] relates to Staphylococcus aureus. The test can be described thus: Antibacterial activity against Staphylococcus aureus at 50 ug/ml.
In test [8] the test system is Bacillus subtilis. Description: Antibacterial activity against Bacillus subtilis at 200 ug/ml.
In test [9] the test system is Bacillus subtilis. Description: Antibacterial activity against Bacillus subtilis at 100 ug/ml.
Test [10] deals with Aspergillus niger. The test can be described thus: Antifungal activity against Aspergillus niger at 200 ug/ml.
The subject of test [11] is Escherichia coli. The test can be described thus: Antibacterial activity against Escherichia coli at 100 ug/ml.
Test [12] relates to Bacillus subtilis. Description: Antibacterial activity against Bacillus subtilis at 50 ug/ml.
Test [13] relates to Candida albicans. Description: Antifungal activity against Candida albicans at 50 ug/ml.
Test [14] has as its system Pseudomonas aeruginosa. Description: Antibacterial activity against Pseudomonas aeruginosa at 50 ug/ml.
Test [15] concerns Pseudomonas aeruginosa. The test can be described thus: Antibacterial activity against Pseudomonas aeruginosa at 200 ug/ml.
Test [16] relates to Staphylococcus aureus. Description: Antibacterial activity against Staphylococcus aureus at 100 ug/ml.
Test [17] deals with Candida albicans. The test can be described thus: Antifungal activity against Candida albicans at 200 ug/ml.

Consider `O=C1/C(=N\n2c(Cc3ccccc3)n[nH]c2=S)c2cc(Cl)ccc2N1CN1CCCCC1`, for which the zone of inhibition at 100 µg/mL was 11 mm in the test on Candida albicans [1]; 15 mm in the test with Pseudomonas aeruginosa [4]; 9 mm in the test on Aspergillus niger [5]; 13 mm with Bacillus subtilis [9]; 16 mm with Escherichia coli [11]; 12 mm in the test with Staphylococcus aureus [16]. For the same compound, the zone of inhibition at 200 µg/mL in the test on Staphylococcus aureus [2] is 20 mm; in the test with Escherichia coli [6], 25 mm; with Bacillus subtilis [8], 22 mm; with Aspergillus niger [10], 15 mm; in the test on Pseudomonas aeruginosa [15] it was 21 mm; in the test on Candida albicans [17], 16 mm. For the same compound, the zone of inhibition at 50 µg/mL in the test with Escherichia coli [3] stood at 10 mm; in the test with Staphylococcus aureus [7] it was 9 mm; in the test with Bacillus subtilis [12], 9 mm; in the test on Candida albicans [13], 9 mm; in the test on Pseudomonas aeruginosa [14], 10 mm.
Turning to `O=C1Nc2ccccc2/C1=N/n1c(Cc2ccccc2)n[nH]c1=S`, the zone of inhibition at 100 µg/mL in the test with Candida albicans [1] is 9 mm; in the test with Pseudomonas aeruginosa [4], 16 mm; with Aspergillus niger [5], 9 mm; with Bacillus subtilis [9] it was 15 mm; with Escherichia coli [11], 19 mm; in the test on Staphylococcus aureus [16] it was 16 mm. Moreover, the zone of inhibition at 200 µg/mL with Staphylococcus aureus [2] worked out at 22 mm; in the test on Escherichia coli [6], 23 mm; with Bacillus subtilis [8], 20 mm; in the test on Aspergillus niger [10], 14 mm; with Pseudomonas aeruginosa [15], 24 mm; in the test with Candida albicans [17] it was 15 mm. In addition, the zone of inhibition at 50 µg/mL in the test on Escherichia coli [3] stood at 12 mm; in the test on Staphylococcus aureus [7], 10 mm; in the test with Bacillus subtilis [12] it was 9 mm; in the test on Pseudomonas aeruginosa [14] it was 13 mm.
